Assay results from patent US8889683B2, “Substituted quinoxalines as inhibitors of fatty acid binding protein” (Merck Sharp & Dohme Corp., priority 2010, dated 2014).

Target: FABP4 (Homo sapiens, UniProt P15090)
Experiment: TdF-based ligand binding affinity (FABP inhibitory activity assay)
Settings: TdF-based ligand binding affinity constant
Excerpt: Theoretical basis for TdF-based ligand binding affinity constant
The derivation of TdF-based ligand binding affinity constant (Kd) followed closely those previously formulated by Brandts and Lin, Biochemistry 29 (1990) 6927-6940. In brief, the binding constant of the ligand at the Tm is expressed as below: […]
where T0 is the midpoint of unfolding for unliganded protein and Tm is the midpoint of unfolding in presence of ligand. [LTm] is free ligand at Tm. The ΔHu and ΔCpu are the enthalpy of unfolding and heat capacity change of unfolding for the protein respectively. The ΔCPu is proportional to the size of protein and is an approximate quantity in the above equation (empirically, ΔCpu=(MW of protein/115)*14 cal/mol*K). Following algorithm derived by Mayhood et al, (Analytical Biochemistry 345 (2005) 187-197), the T0 and ΔHu can be determined separately from nonlinear regression fitting the temperature dependent protein alone curve to the following equation: […]
The nonlinear regression fitting in general readily reaches convergence by properly constraining the initial values for the fitting parameters (e.g. the initial “guess” for the ΔHu was constrained to 120 kcal/mol; initial Yn and mr, were set to 1 and zero to best represent the melting curve along the low temperature region; negative slope of −0.5 was initially chosen for mu; initial Tm was also constrained to 50° C.).
(see Brandts et al and Mayhood et al, shown above) where ΔHL (T) is the van't Hoff enthalpy of ligand binding at temperature T and ΔCpL is the heat capacity upon ligand binding. For simplicity, the ΔCpL and ΔHL (T) were set to zero and −7 kcal/mol respectively. (The ΔCpL accounts for minimal portion of total protein-ligand binding energetics and is therefore set to zero (For example, see Hossein Naghibi et al, Proc. Natl. Acad. Sci. 92, 5597-5599 (1995), where ΔCpL was estimated to ˜2% of ΔHL at 25° C. obtained from calorimetric study of binding RNase A and 2′-CMP)).

FABP4, sequence (P15090 whole entry): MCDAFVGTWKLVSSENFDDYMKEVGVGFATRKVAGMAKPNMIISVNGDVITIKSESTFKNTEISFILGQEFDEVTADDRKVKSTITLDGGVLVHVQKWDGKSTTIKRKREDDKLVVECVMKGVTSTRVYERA

Structure (SMILES)	Kd
O=C(c1nc2ccccc2nc1O)N1CCCC(Cc2ccccc2)C1 (racemic) [Compound 1-83, (+/−)-(3-Benzylpiperidin-1-yl)(3-hydroxyquinoxalin-2-yl)methanone]	16200 nM
Cc1ccc(CC2CCCN2C(=O)c2nc3ccccc3nc2O)cc1C (racemic) [Compound 1-42, (+/−)-[2-(3,4-Dimethylbenzyl)pyrrolidin-1-yl](3-hydroxyquinoxalin-2-yl)methanone]	1340 nM
O=C(c1nc2ccc(C(F)(F)F)cc2nc1O)N1CCCC1Cc1cccc(F)c1 (centres unmarked) [Compound 1-163]	2 nM
CN(CCc1ccccc1)C(=O)c1nc2ccccc2nc1O [Compound 1-139]	12700 nM
O=C(c1nc2ccccc2nc1O)N1CCC[C@@H]1Cc1cccc(Cl)c1 [Compound 8-9, (R)-(2-(3-chlorobenzyl)pyrrolidin-1-yl)(3-hydroxyquinoxalin-2-yl)methanone]	5000 nM
O=C(c1nc2cc(I)ccc2nc1O)N1CCCC1Cc1cccc(Cl)c1 (racemic) [Compound 1-18, (+/−)-[2-(3-Chlorobenzyl)pyrrolidin-1-yl](3-hydroxy-7-iodoquinoxalin-2-yl)methanone]	630 nM
CCC(c1ccccc1)C1CCCN1C(=O)c1nc2ccccc2nc1O (racemic) [Compound 1-48, (+/−)-(3-Hydroxyquinoxalin-2-yl)[2-(1-phenylpropyl)pyrrolidin-1-yl]methanone]	11900 nM
O=C(c1nc2ncccc2nc1O)N1CCCC1Cc1cccc(Cl)c1 (racemic) [Compound 1-32, (+/−)-[2-(3-Chlorobenzyl)pyrrolidin-1-yl](2-hydroxypyrido[2,3-b]pyrazin-3-yl)methanone]	300 nM
O=C(c1nc2ccccc2nc1O)N1CCCCC1Cc1ccc(F)cc1 (racemic) [Compound 1-79, (+/−)-[2-(4-Fluorobenzyl)piperidin-1-yl](3-hydroxyquinoxalin-2-yl)methanone]	4700 nM
O=C(c1nc2cccc(Cl)c2nc1O)N1CCCC1Cc1cccc(F)c1 (centres unmarked) [Compound 1-161]	22 nM
O=C(c1nc2ccc(I)cc2nc1O)N1CCCC1Cc1cccc(Cl)c1 (racemic) [Compound 1-19, (+/−)-[2-(3-Chlorobenzyl)pyrrolidin-1-yl](3-hydroxy-6-iodoquinoxalin-2-yl)methanone]	460 nM
O=C(c1nc2cc(Cl)c(Cl)cc2nc1O)N1CCCC1Cc1cccc(Cl)c1 (racemic) [Compound 1-13, (+/−)-[2-(3-Chlorobenzyl)pyrrolidin-1-yl](6,7-dichloro-3-hydroxyquinoxalin-2-yl)methanone]	63 nM
O=C(c1nc2cc(Cl)c(Cl)cc2nc1O)N1CCC[C@H]1Cc1cc(Cl)cc(Cl)c1 [Compound 8-11]	4 nM
O=C(c1nc2cccc(C(F)(F)F)c2nc1O)N1CCCC1Cc1cccc(Cl)c1 (racemic) [Compound 1-30, (+/−)-[2-(3-Chlorobenzyl)pyrrolidin-1-yl][3-hydroxy-5-(trifluoromethyl)quinoxalin-2-yl]methanone]	2 nM
Cc1cccc(CC2CCCCCN2C(=O)c2nc3ccccc3nc2O)c1 (racemic) [Compound 1-91, (+/−)-(3-Hydroxyquinoxalin-2-yl)[2-(3-methylbenzyl)azepan-1-yl]methanone]	1840 nM
O=C(c1nc2cccnc2nc1O)N1CCCC1Cc1cccc(Cl)c1 (racemic) [Compound 1-33, (+/−)-[2-(3-Chlorobenzyl)pyrrolidin-1-yl](3-hydroxypyrido[3,2-b]pyrazin-2-yl)methanone]	600 nM
O=C(c1nc2ccccc2nc1O)N1CCCC1Cc1c(F)cccc1Cl (racemic) [Compound 1-52, (+/−)-[2-(2-Chloro-6-fluorobenzyl)pyrrolidin-1-yl](3-hydroxyquinoxalin-2-yl)methanone]	5680 nM
CC(C)CN(C)C(=O)c1nc2ccccc2nc1O [Compound 1-140]	23200 nM
O=C(c1nc2ccccc2nc1O)N1CCCCCC1Cc1ccc(Cl)cc1 (racemic) [Compound 1-93, (+/−)-[2-(4-Chlorobenzyl)azepan-1-yl](3-hydroxyquinoxalin-2-yl)methanone]	9000 nM
O=C(c1nc2ccc(S(=O)(=O)C(F)(F)F)cc2nc1O)N1CCCC1Cc1cccc(Cl)c1 (racemic) [Compound 1-25, (+/−)-[2-(3-Chlorobenzyl)pyrrolidin-1-yl][3-hydroxy-6-(trifluoromethylsulfonyl)quinoxalin-2-yl]methanone]	100 nM
O=C(c1nc2ccc(OC(F)(F)F)cc2nc1O)N1CCCC1Cc1cccc(Cl)c1 (racemic) [Compound 1-21, (+/−)-[2-(3-Chlorobenzyl)pyrrolidin-1-yl][3-hydroxy-6-(trifluoromethoxy)quinoxalin-2-yl]methanone]	220 nM
O=C(c1nc2cc(Cl)c(Cl)cc2nc1O)N1CCCC1CC1CCCCC1 (centres unmarked) [Compound 1-165]	244 nM
O=C(c1nc2cc(Cl)ccc2nc1O)N1CCCC1Cc1cccc(Cl)c1 (racemic) [Compound 1-9, (+/−)-(7-Chloro-3-hydroxyquinoxalin-2-yl)[2-(3-chlorobenzyl)pyrrolidin-1-yl]methanone]	410 nM
O=C(c1nc2ccccc2nc1O)N1CCCCC1Cc1cccc(C(F)(F)F)c1 (racemic) [Compound 1-75, (+/−)-(3-Hydroxyquinoxalin-2-yl) {2-[3-(trifluoromethyl)benzyl]piperidin-1-yl}methanone]	980 nM
O=C(c1nc2ccccc2nc1O)N1CCCC1Cc1ccc(F)cc1 (centres unmarked) [Compound 1-158]	2000 nM
CN(CCc1cccc(Cl)c1)C(=O)c1nc2ccccc2nc1O [Compound 1-156]	2700 nM

More lines, in order of falling Kd, values ahead:

Kd	Structure (SMILES)
22700 nM	O=C(c1nc2ccccc2nc1O)N1CCC[C@H]1CNc1ccccc1 [Compound 1-65, (S)-(3-Hydroxyquinoxalin-2-yl){2-[(phenylamino)methyl]pyrrolidin-1-yl}methanone]
14200 nM	O=C(c1nc2ccccc2nc1O)N1CCCCC1Cc1ccccc1 (racemic) [Compound 1-72, (+/−)-(2-Benzylpiperidin-1-yl)(3-hydroxyquinoxalin-2-yl)methanone]
11000 nM	COc1cccc(CC2CCCN(C(=O)c3nc4ccccc4nc3O)C2)c1 (racemic) [Compound 1-85, (+/−)-(3-Hydroxyquinoxalin-2-yl)[3-(3-methoxybenzyl)piperidin-1-yl]methanone]
9800 nM	Cc1ccc(CC2CCCN2C(=O)c2nc3ccccc3nc2O)cc1 (centres unmarked) [Compound 1-117]
8100 nM	O=C(c1nc2ccccc2nc1O)N1CCCC[C@@H]1Cc1cccc(Cl)c1 [Compound 7-7, (R)-(2-(3-chlorobenzyl)piperidin-1-yl)(3-hydroxyquinoxalin-2-yl)methanone]
4940 nM	COc1ccc2nc(O)c(C(=O)N3CCCC3Cc3cccc(Cl)c3)nc2c1 (racemic) [Compound 1-27, (+/−)-[2-(3-Chlorobenzyl)pyrrolidin-1-yl](3-hydroxy-7-methoxyquinoxalin-2-yl)methanone]
4600 nM	O=C(c1nc2ccccc2nc1O)N1CCCC1Cc1ccccc1 (centres unmarked) [Compound 1-116]
2900 nM	O=C(c1nc2ccccc2nc1O)N1CCCC1Cc1ccccc1F (centres unmarked) [Compound 1-153]
1200 nM	O=C(c1nc2ccccc2nc1O)N1CCCC[C@H]1Cc1cccc(Cl)c1 [Compound 7-8, (S)-(2-(3-chlorobenzyl)piperidin-1-yl)(3-hydroxyquinoxalin-2-yl)methanone]
950 nM	O=C(c1nc2cc(OC(F)(F)F)ccc2nc1O)N1CCCC1Cc1cccc(Cl)c1 (racemic) [Compound 1-20, (+/−)-[2-(3-Chlorobenzyl)pyrrolidin-1-yl][3-hydroxy-7-(trifluoromethoxy)quinoxalin-2-yl]methanone]
500 nM	N#Cc1ccc2nc(C(=O)N3CCCC3Cc3cccc(Cl)c3)c(O)nc2c1 (racemic) [Compound 1-31, (+/−)-2-[2-(3-Chlorobenzyl)pyrrolidine-1-carbonyl]-3-hydroxyquinoxaline-6-carbonitrile]
110 nM	O=C(c1nc2c(Cl)cccc2nc1O)N1CCCC1Cc1cccc(Cl)c1 (racemic) [Compound 1-8, (+/−)-(8-Chloro-3-hydroxyquinoxalin-2-yl)[2-(3-chlorobenzyl)pyrrolidin-1-yl]methanone]
24 nM	O=C(c1nc2cc(SC(F)(F)F)ccc2nc1O)N1CCCC1Cc1cccc(Cl)c1 (racemic) [Compound 1-22, (+/−)-[2-(3-Chlorobenzyl)pyrrolidin-1-yl][3-hydroxy-7-(trifluoromethylthio]quinoxalin-2-yl)methanone]
24 nM	O=C(c1nc2ccc(SC(F)(F)F)cc2nc1O)N1CCCC1Cc1cccc(Cl)c1 (racemic) [Compound 1-23, (+/−)-[2-(3-Chlorobenzyl)pyrrolidin-1-yl][3-hydroxy-6-(trifluoromethylthio]quinoxalin-2-yl)methanone]
4 nM	O=C(c1nc2cccc(Cl)c2nc1O)N1CCCC1Cc1ccc(Cl)c(Cl)c1 (centres unmarked) [Compound 1-162]
